Measurements reported in PMC7667655, “Targeted Covalent Inhibition of Plasmodium FK506 Binding Protein 35” (ACS Medicinal Chemistry Letters, 2020).
Read-outs that look alike come from different tables or passages of the source.

How the values were obtained:
[1] = target: T1, FBD35 (PfFKBP35 binding domain) (Plasmodium falciparum, UniProt Q8I4V8); test: Fluorescence polarization competition, FBD35
T1 construct: FKBP35 Q5 -A128; 6His-SUMO (N, cleaved yes); made in house; host or cells: E. coli BL21 DE3
T1 sequence (Q8I4V8 5-128): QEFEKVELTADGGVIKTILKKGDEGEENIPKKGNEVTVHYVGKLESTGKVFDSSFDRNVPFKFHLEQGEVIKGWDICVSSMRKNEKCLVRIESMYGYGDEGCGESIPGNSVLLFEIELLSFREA

FKBP12 [2] = target: T2, FKBP12 (Homo sapiens, UniProt P62942); test: Fluorescence polarization competition, FKBP12; type: binding
T2 construct: 6His-SUMO (N, cleaved yes); made in house; host or cells: E. coli (identical protocol to FBD35, BL21 DE3)
T2 sequence (P62942 whole entry): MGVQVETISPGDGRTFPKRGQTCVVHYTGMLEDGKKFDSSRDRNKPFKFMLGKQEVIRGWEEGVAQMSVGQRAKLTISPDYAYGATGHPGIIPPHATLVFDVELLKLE

[3] = target: T1, FBD35 (PfFKBP35 binding domain); test: Differential scanning calorimetry, FBD35; conditions: read-out: FBD35 ΔTM
FKBP12 [4] = target: T2, FKBP12; test: Differential scanning calorimetry, FKBP12; type: binding; conditions: compound 40 µM
[5] = target: T3, nLuc-tagged full length PfFKBP35 (Plasmodium falciparum, UniProt Q8I4V8); test: NanoBRET cellular target engagement, nLuc-FKBP35; type: cell-based
T3 construct: nanoluciferase-tagged (nLuc) full length PfFKBP35 or nLuc-tagged FKBP12; expressed in transfected cells
T3 sequence (Q8I4V8 whole entry): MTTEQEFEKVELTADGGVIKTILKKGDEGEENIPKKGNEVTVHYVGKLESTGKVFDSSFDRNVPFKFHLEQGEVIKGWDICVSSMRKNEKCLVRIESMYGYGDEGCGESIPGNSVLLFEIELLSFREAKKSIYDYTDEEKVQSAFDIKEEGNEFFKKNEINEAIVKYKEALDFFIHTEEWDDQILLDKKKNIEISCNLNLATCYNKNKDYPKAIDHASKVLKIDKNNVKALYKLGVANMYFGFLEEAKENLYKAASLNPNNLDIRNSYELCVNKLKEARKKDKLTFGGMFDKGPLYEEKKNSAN

nLuc-tagged FKBP12 = target: T4, nLuc-tagged FKBP12 (Homo sapiens, UniProt P62942); test: NanoBRET cellular target engagement, nLuc-FKBP12; type: cell-based
T4 construct: full length Plasmodium falciparum FKBP35 and human FKBP12 DNA were; expressed in transfected cells
T4 sequence (P62942 whole entry): as the sequence (P62942 whole entry) above

[6] = tested on: NF54 P. falciparum parasites; test: P. falciparum strain NF54 growth-inhibition assay; type: cell-based; conditions: Plasmodium falciparum; luciferase reporter NF54 line, 72 h
Protocol: Figure 6 P. falciparum strain NF54 growth-inhibition assay. […] Proliferation was measured by luminescence after a complete life-cycle and normalized to DMSO (100%) and chloroquine (100 nM, 0%). (B) Structural differences between synthetic ligands and compound IC50s (μM).
Substrate and Extracellular NanoLuc® Inhibitor (Promega, cat. N2160) were diluted at 1:166 and 1:500, respectively, in Opti -MEM I Reduced Serum Media. 25 µL of this solution was added to each well and plate was read immediately using an EnVision Multimode Plate Reader (PerkinElmer). The BRET ratio was calculated using the following formula:
BRET ratio = acceptorsample – acceptorno tracer control donorsample donorno tracer control
NanoBRET Target Engagement Assay (384-well)
HEK293T cells stably expressing either nLuc-FKBP12 or nLuc-FKBP35 were plated at 0.2×10^6 cells/mL in white, clear -bottom 384-well plates (Sigma Aldrich) in Opti -MEM I Reduced Serum Media (ThermoFisher Scientific) using a Mutidrop Combi Reagent Dispenser (ThermoFisher Scientific). Cells were incubated overnight at 37 °C, 5% CO 2. Using a Tecan D300e, the Rap-Gly-BDP tracer was added to cells to 1 µM. Plates were shaken at 700 RPM on an orbital plate shaker and incubated at 37 °C, 5% CO 2 for 10 minutes. Test compounds were added at the indicated concentrations using a Tecan D300e. Plates were shaken at 700 RPM on an orbital plate shaker and incubated at 37 °C, 5% CO 2 for 2 hours. NanoBRET Nano -Glo Substrate and Extracellular NanoLuc® Inhibitor (Promega, cat. N2160) were diluted at 1:166 and 1:500, respectively, in Opti-MEM I Reduced Serum Media. 10 µL of this solution was added to each well and plate was read immediately using an EnVision Multimode Plate Reader (PerkinElmer). The BRET ratio was calculated using the above formula.
Parasite Culture and Inhibition
NF54 P. falciparum parasites constitutively expressing Renilla luciferase (RLuc) and Blasticidin-S deaminase under the PfHsp86 5’ and PfHRP2 3‘ regulatory sequences integrated in the cg6 chromosomal locus 4 were maintained continuous ly in media consisting of human erythrocytes at 2% haematocrit (O+) resuspended in RPMI 1640 (Gibco® 31800022) supplemented with 5% Albumax (Gibco® 11021045; complete medium) and 2.5 µg/mL of Blasticidin (RPI Corp B12150-0.1) in a gas mixture consisting of 5% CO2, 1% O2, and 94% N2 at 37 °C (Trager and Jensen 2005).
Parasitemia was determined every 48 h through microscopic examination of thin blood smears fixed in methanol, stained with 10% Giemsa solution, and sub-cultured to 0.5-1% parasitaemia.
Compound susceptibility assays
(§1) In 96-well round-bottom plates, sorbitol -synchronized cultures of ring-stage NF54 P. falciparum parasites were established in triplicate and treated with varying concentrations of the inhibitors (25-0.0038 μM) serially diluted in complete medium. Parasite proliferation rates were analyzed after 72 h using the Renilla-Glo Luciferase Assay, and luminescence was measured using the GloMax® Discover Microplate Reader. EC 50 values were obtained from corrected dose-response curves using GraphPad Prism (version 5; GraphPad Software). Data represent the mean % luminescence relative to 5% DMSO-treated (vehicle, 100% growth) and 100 nM chloroquine-treated (no growth) controls.
(§2) In black, clear-bottom 96-well plates (No. 3904 Corning Life Sciences), HEK293T cells were plated at 2x10^5 cells/mL in DMEM high glucose, pyruvate media (ThermoFisher Scientific, cat. 11995073) supplemented with 10% FBS and 1% pen -strep (100 μL final volume). Cells were incubated overnight at 37°C, 5% CO2. Using a Tecan D300e digital dispenser, cells were dosed in triplicate […]
concentration, 100 mM stock in DMSO) and Carfilzomib (10 µM to 4.6 nM final concentration, 10 mM stock in DMSO) normalizing DMSO to 0.25%. Cells were then incubated at 37 °C, 5% CO2 for 72 hours. Following incubation, cells were treated with 70 µL CellTiter-Glo® Luminescent Cell […]

[7] = Plasma stability assay, human; type: in vitro ADME; conditions: percent remaining, 1 µM, 37 °C, 5 hours
Protocol: as §1, §2
(§3) concentration, 100 mM stock in DMSO) and Carfilzomib (10 µM to 4.6 nM final concentration, 10 mM stock in DMSO) normalizing DMSO to 0.25%. Cells were then incubated at 37 °C, 5% CO2 for 72 hours. Following incubation, cells were treated with 70 µL CellTiter-Glo® Luminescent Cell Viability Assay Reagent (Promega, cat. G7570) and incubated in the dark at room temperature for 30 minutes. Plates were read using an EnVision Multimode Plate Reader (PerkinElmer). Cell viability data was normalized to DMSO controls and analyzed in GraphPad Prism 8 by fitting the data to “[Inhibitor] vs. normalized response – variable slope” model to obtain the curves.
(§4) Each compound was prepared in duplicate at 1 µM final concentration (0.2% DMSO) in human or mouse plasma (Aldrich). Samples were incubated at 37 °C for 5 hours with mixing at 350 rpm on an orbital shaker. Aliquots of each sample were taken at time zero and following 5 hours. Each sample was quenched by adding acetonitrile in a 3:1 ratio and further diluting with 50 µl of PBS.
(§5) After quenching, samples were centrifuged to pellet precipitated partic ulates and an aliquot of supernatant was diluted 1:1 with water. The resulting solution was analyzed by UPLC -MS/MS with compounds detected by MRM detection on a triple quadrupole mass spectrometer. The ratio of compound peak areas at 0 and 5 hours were use d to calculate the percent remaining.

[8] = Plasma stability assay, mouse; type: in vitro ADME; conditions: percent remaining, 1 µM, 37 °C, 5 hours
Protocol: as §1, §2, §3, §4, §5

[9] = Cell viability assay (CellTiter-Glo); type: cell-based; conditions: human
Protocol: as §1, §2, §3
Each compound was prepared in duplicate at 1 µM final concentration (0.2% DMSO) in human or mouse plasma (Aldrich). […]
After quenching, samples were centrifuged to pellet precipitated partic ulates and an aliquot of supernatant was diluted 1:1 with water. The resulting solution was analyzed by UPLC -MS/MS with compounds detected by MRM detection on a triple quadrupole mass spectrometer. […]

FKBP35 = target: T5, FKBP35 (Plasmodium falciparum, UniProt Q8I4V8); test: Mass spec of FKBP35 incubated with D44 analogs; type: biochemical
T5 construct: FKBP35 Q5 -A128; 6His-SUMO (N, cleaved yes); made in house; host or cells: E. coli BL21 DE3
T5 sequence (Q8I4V8 5-128): as the sequence (Q8I4V8 5-128) above
Protocol: Prior to DSC experiments 400 µL of the reaction mixture was saved f or mass spectrometry analysis. For intact mass analysis, 100 µL of the reaction mixture was diluted to 0.05 mg/mL and injected onto a ZORBAX StableBond 300 C8 HPLC column [2.1 x 100 mm, 3.5 µm (Agilent)] on an Agilent HPLC binary pump system. Initial m obile phase conditions were 15% acetonitrile/85% water, both containing 0.1% formic acid. Protein was desalted for 2 minutes and eluted from the column with a gradient of 15% to 75% acetonitrile over 10 min. Intact mass measurement was performed on a Q Exa ctive mass spectrometer with an ESI source (Thermo Scientific). Source parameters: spray voltage, 3500 V; capillary temperature, 340°C; sheath gas, 35; auxiliary gas, 5; (gas flows in arbitrary units of the ESI source). MS detection was performed using a Full MS scan acquisition method, scanning over the range 800 -2100 m/z. BioPharma Finder v 3.0 (Thermo Fisher Scientific) was used for data acquisition and analysis. DSC and mass spectrometry experiments were performed in parallel.
For chymotrypsin digestion , 20 µL of the reaction mixture was added to 20 µL of fresh denaturing solution (0.1 M urea, 0.1 M NaCl, adjusted to 10 ml with 50 mM Tris Buffer pH 8.0). Then 10 µL of 10 mM TCEP was added to the mixture, which was then incubated at 37 °C for 60 minutes. To prevent modification of free thiol groups in FKBP proteins during digestion, 4 µL of 50 mM iodoacetamide (IAA, Sigma No. A3221) was added followed by incubation at room temperature in the dark for 30 minutes. After the incubation, the reaction mixture w as brought up to 200 µL with 140 µL of 10 mM Trizma pH 7.5. The peptide fragments were generated by adding chymotrypsin at a molar ratio of 1 chymotrypsin : 100 FKBP protein and incubated overnight at 37 °C. The reaction was quenched by adding 10 µL of form ic acid (~5% of total volume) followed by a few seconds of a vortex pulse.
Samples were analyzed using a Thermo Fisher Scientific Vanquish UHPLC connected to a Q Exactive HF mass spectrometer with a HESI source. Source parameters were as follows: spray voltage, 3500 V; capillary temperature, 300 °C; sheath gas flow, 45; auxiliary gas flow; 10; sweep gas flow, 1; (gas flows in arbitrary units of the HESI source). Digested samples were injected onto an ACQUITY UPLC BEH C18 Column [130Å, 1.7 µm, 2.1 mm X 50 mm (Waters)] held at 45 °C and desalted for 30 s with 5% acetonitrile/95% water, both containing 0.1% formic acid. Peptides were separated using a 5% to 65% acetonitrile gradient over 6.5 min. MS detection was performed using a Full MS/ddMS2 (Top 5) acquisi tion method, scanning over the range 300 -1800 m/z. […]
DSC thermograms were recorded in MicroCal DSC from Malvern with an autosampler. […]

[10] = tested on: Plasmodium cultured parasites; conditions: Figure 1; read-out: IC50 in blood-stage antiplasmodium assays; cited from earlier work

CCC(=O)OCC(C)(C)C(=O)C(=O)N1CCCC[C@H]1C(=O)O[C@H](CCc1ccc(OC)c(OC)c1)c1ccccc1 [2d]
IC50 [1]: 99 nM | IC50 (FKBP12 [2]): 43 nM | ΔTm at 40 µM [3]: 3 °C | ΔTm at 40 µM (FKBP12 [4]): 5.9 °C | IC50 [5]: 1310 nM | IC50 (nLuc-tagged FKBP12): 454 nM | IC50 [6]: 9900 nM | Plasma Stability (human) [7]: 1% | Plasma Stability (mouse) [8]: 0%

CC(C)C[C@H](NC(=O)[C@H](CCc1ccccc1)NC(=O)CN1CCOCC1)C(=O)N[C@@H](Cc1ccccc1)C(=O)N[C@@H](CC(C)C)C(=O)[C@@]1(C)CO1 [carfilzomib]
IC50 at 72 h [9]: 15 nM

C=CC(=O)NCc1ccc(NC(=O)CSc2nc3cccnc3[nH]2)cc1 [D44c]
% Abundance of modified FKBP35 (FKBP35; incubation temp 37 °C): 37.0% | % Abundance of modified FKBP35 (FKBP35; incubation temp RT): 17.1%

CC[C@H]1CN(Cc2ccccn2)C(=O)[C@@H]2CCC[C@H]1N2S(=O)(=O)c1cc(Cl)cc(Cl)c1 [[4.3.1]-ABS]
IC50 [10]: 2300 nM

C=CC(=O)NCc1ccccc1NC(=O)CSc1nc2cccnc2[nH]1 [D44a]
% Abundance of modified FKBP35 (FKBP35; incubation temp 37 °C): 4.1% | % Abundance of modified FKBP35 (FKBP35; incubation temp RT): 11.5%

CO[C@H]1C[C@@H]2CC[C@@H](C)[C@@](O)(O2)C(=O)C(=O)N2CCCC[C@H]2C(=O)O[C@H]([C@H](C)C[C@@H]2CC[C@@H](O)[C@H](OC)C2)CC(=O)[C@H](C)/C=C(\C)[C@@H](O)[C@@H](OC)C(=O)[C@H](C)C[C@H](C)/C=C/C=C/C=C/1C [Rapamycin, reference compound]
IC50 [6]: 1100 nM | IC50 at 72 h ([9]; HEK293T cells, HEK293T, 72 hour treatment, read-out: IC50 cell viability): 63000 nM
